Series [1] deals with T1, gp120/CD4 interaction (Human immunodeficiency virus type 1 group M subtype B, UniProt P03375).
Series [2] has as its target T1, gp120/CD4 interaction. Kind of series: cell-based.
Series [3] relates to HeLa CD4 LTR β-gal cells. Kind of series: Compound toxicity in HeLa CD4 LTR β-gal cells (XTT).
In series [4] the test system is HeLa CD4 LTR β-gal cells. Kind of series: HIV attachment inhibition assay (β-galactosidase chemiluminescence).

In brackets after ≈: the same amount, converted by molar mass.

In the case of `COc1cc(-c2ccc(/N=N/c3ccc4c(S(=O)(=O)O)cc(S(=O)(=O)O)c(N)c4c3O)c(OC)c2)ccc1/N=N/c1ccc2c(S(=O)(=O)O)cc(S(=O)(=O)O)c(N)c2c1O` [Chicago Sky Blue], the “TI (=IC50/TC50)” value at gp120/CD4 interaction [1] is listed as over 5; in the series on HeLa CD4 LTR β-gal cells [4] (general virus attachment), over 18. Besides, the IC50 (as a rule, the concentration that gives 50% inhibition) against gp120/CD4 interaction [2] is 2.28 µM; in the series with HeLa CD4 LTR β-gal cells [4] (Human immunodeficiency virus 1, HeLa) it was 0.53 µg/mL (≈ 0.586 µM). Moreover, the TC50 with HeLa CD4 LTR β-gal cells [3] (Table 10, XTT sister plate) was over 10 µg/mL; in the series on HeLa CD4 LTR β-gal cells [3] (Table 11), over 10 µg/mL.

The record behind these values is patent US6534049B2, “Synthetic soil-extract materials and medicaments for human immunodeficiency viruses based thereon” (priority 1997, dated 2003).
